The values that follow come from patent US7534455B2, “Herbal composition PHY906 and its use in chemotherapy” (Yale University, priority 2000, dated 2009).

The subject of one series is colorectal cancer. Conditions: cited from earlier work; for Median survival time / Median time to disease progression: NS.
A short description of series [1]: Pharmacokinetics of CPT-11/FU/LV in BDF-1 mice bearing Colon 38 tumor. Format: in vivo. Particulars: triple combination CPT-11/FU/LV. The source says:
The pharmacokinetic data of CPT-11/FU/LV in BDF-1 mice bearing Colon 38 tumor in the presence and absence of PHY906 are shown in FIGS. 18-20. PHY906-6 is a clinical batch of PHY906, containing 10% excipient (starch).

In a further series the test system is hepatocellular carcinoma. Conditions: cited from earlier work.
Series [2] can be described thus: Pharmacokinetics of gemcitabine (dFdC) and dFdU in plasma of PAN02 bearing BDF-1 mice. Format: in vivo. Particulars: for AUC, dFdC + PHY906: PHY906 500 mg/kg 30 min before gemcitabine; for AUC, dFdC alone: gemcitabine 600 mg/kg. Here is the method:
(§1) Plasma Handling: The mouse plasma was separated from the blood by centrifugation at 10,000 g at 4° C. for 10 min.
b) Gemcitabine-containing plasma: The plasma (50 μl) was extracted with 200 μl of acetonitrile (ACN) in the presence of 5 μl of 0.1 mM AZT as an internal standard. After centrifugation, the supernatant was dried by a Speedvac, reconstituted with 100 μl of solution containing 2.5% ACN and 97.5% of 15 mM ammonium acetate (pH 5.0).
(§2) The resultant analyte was then analyzed by HPLC with UV absorption and/or radioactivity.
To determine, for a future clinical trial, if PHY906 would change the metabolism of gemcitabine, a pharmacokinetics analysis in mice bearing pancreatic cancer was performed. Mice were divided into three sets of 15: gemcitabine only, gemcitabine plus PHY906, and vehicle control. Each mouse in the set was bled twice at two different time points. Plasma was processed as described in Materials and Methods and analyzed by HPLC with radioactivity confirmation of peak identity and quantitation.

Series [3] in a line: Pharmacokinetics of capecitabine in animal models. The series is classed as in vivo, mouse. Here is the method: as §1
a) Capecitabine-containing sample: The plasma (50 μl) was extracted with 200 μl of acetonitrile in the presence of 10 μl of 5-iodouracil (IU)(50 μg/ml) as an internal standard. After centrifugation, the supernatant from capecitabine-containing sample was dried by a speedvac, reconstituted with 50 μl of 0.1 M sodium acetate buffer (pH 4.8), and extracted with 1.3 ml of water-saturated ethyl acetate. The organic layer was separated after centrifugation (10,000 g at 4° C. for 10 min), dried by a speedvac and reconstituted with 100 μl of water.
as §2

A short description of series [4]: Determination of CPT-11 dose in non-tumor bearing BDF-1 mice (weight loss, death). The series is classed as in vivo. Particulars: single i.p. bolus. Here is the method: Animal weight loss was monitored as an indication of toxicity caused by anticancer chemotherapy agents. The effect of CPT-11 on weight loss in non-tumor bearing BDF-1 mice was studied using six different dosages: 100, 200, 300, 400, 600, or 800 mg/kg body weight to determine the maximum tolerable dose in mice. A single bolus dose of CPT-11 was administered intraperitoneally (i.p.) at the beginning of the study, and weight loss was monitored daily for 12 days.
One dose of CPT-11 was administered i.p. to each mouse at the beginning of the study, and the weight loss of the animal was then monitored daily for 12 days.

Series [5] in a line: Host toxicity (body weight loss, mortality, blood cell counts) in chemotherapy treated BDF-1 mice bearing Colon 38 tumor. Format: in vivo. Here is the method: Anti-Tumor Studies: Murine Colon 38 (1-2×10^6 cells in 0.1 ml PBS) or human HepG2 cells (1-2×10^6 cells in 0.1 ml PBS) were transplanted subcutaneously into BDF1 or NCr athymic nude mice, respectively. The length and width of the tumors were measured daily with sliding calipers. The tumor weight was estimated according to the following formula (Pizzorno G, Wiegand R, Lentz S, et al., Cancer Res. 52:1660-1665 (1992)): Tumor weight (mg)=length (mm)×width (mm)^2/2.
After 10 to 14 days, mice (five animals/group) with tumor weights ranging from 150-200 mg were selected for drug studies (Guo X, Lerner-Tung M, Chen H X, et al., Biochem Pharmacol 49:1111-1116 (1995)). Mice were sacrificed when the tumor size reached 10% of body weight. PHY906 was administered orally either alone or with anti-cancer chemotherapeutic agents. The effect of PHY906 on antitumor efficacy and the reduction of toxicity by the agents were evaluated. CPT-11 was given intraperitoneally (i.p.) 30 min after PHY906 administration with the selected dose. The regimen of FU/LV combination therapy was given as follows:
The first day of treatment was defined as day 0. PHY906 was given orally twice a day (10 am and 3 pm) for either 4 or 8 days beginning on day 0. For the control group, mice were administrated a vehicle, either PBS for i.p. or H2O for p.o. (oral administration). Animals were monitored for mortality, weight loss, and tumor size daily.
Blood Cell Counts: Blood (20 μl) was taken from mice on days 0, 3, 6, 9 and 12 with micro-capillary tubes. Blood was then be diluted to 200 μl with normal saline (0.85% Sodium Chloride). WBC, RBC and platelets were counted by a BAKER SYSTEM 9100™ […] (Biochem ImmunoSystems Inc., Allentown, Pa. 18103-9562).
PHY906 was evaluated as a modulator of CPT-11 therapy for toxic side effects in mice inoculated with Colon 38 tumor cells. Based on the previous findings (Example 2), a single bolus dose of 400 mg/kg CPT-11 was selected to study the effect of PHY906 on weight-loss associated with toxicity of CPT-11. To evaluate whether PHY906 impairs the antitumor efficacy of CPT-11, mice were implanted subcutaneously with Colon 38 tumor cells. Ten to 14 days after inoculation, mice were treated with CPT-11 (400 mg/kg, i.p.) in the absence or presence of PHY906, which was given orally twice a day at varying doses (125 mg/kg, 250 mg/kg, and 500 mg/kg). PHY906 treatment was continued at the dose indicated for 8 consecutive days.
Mice were divided into four groups with different treatment regimens: Group (A) treatment with vehicle; Group (B) treatment with a single dose of 400 mg/kg CPT-11 by i.p. injection; Group (C) treatment with PHY906 (500 mg/kg/b.i.d.) alone; or Group (D) treatment with a single dose of 400 mg/kg CPT-11 plus 500 mg/kg/b.i.d. PHY906 for 4 or 8 days. The sequence of each treatment regimen appears in Materials and Methods. As depicted in Table 9, 35 of 35 tumor-bearing mice (100%) from Group A and 15 of 15 mice (100%) from Group C survived treatment with either vehicle or PHY906 alone for 4 or 8 days, indicating no or very low toxicity for PHY906.

The nature of series [6]: Toxicity (tolerable dose, body weight loss, death) in nude mice bearing human HepG2 xenografts. The series is classed as in vivo, NCr-nude mice. On the procedure: Weight loss was observed immediately after CPT-11 treatment and continued for six days in mice injected with 400 mg/kg of CPT-11. These animals gradually recovered their original body weight on day 12. […] The maximum tolerable dose of CPT-11 in nude mice bearing the human HepG2 xenografts was 200 mg/kg (data not shown).
Human HepG2 tumor cells were implanted into NCr-nude mice to test the effect of PHY906 on the antitumor activity of CPT-11. […] CPT-11 (200 mg/kg, i.p.) was given on day 0. PHY906 was given twice daily at 500 mg/kg starting on day 0.
Based upon the known pharmacological profiles of herbs contained in PHY906, it was speculated that the enhancing effects might act through immunological and/or hematological systems in normal mice. Therefore, experiments were designed to test the hypothesis in nude mice, which are deficient in immunological and hematological systems. Human hepatocellular carcinoma HepG2 cells were implanted into NCr-nude mice to test the effect of PHY906 on the antitumor activity of CPT-11. […] CPT-11 (200 mg/kg, i.p.) was given on day 0. PHY906 was given twice daily at 500 mg/kg starting on day 0 and continued for 8 days. As shown in 31, PHY906 enhanced the antitumor effect of CPT-11 on human HepG2 xenografts in nude mice.
Background: In xenograft studies the graft and the host belong to different species.

Where [7] appears, read: CPT-11 400 mg/kg, 1 day, alone, observed 14 days.

Where two headings read alike, the source gives them in different places.

`O=c1[nH]cc(F)c(=O)[nH]1` [FU, 5-fluorouracil]: the “Response rate in patients with advanced disease” value with colorectal cancer (human, in vivo) is listed as 10%-12%. In series [1], the “AUCs of FU and its nucleoside/nucleotide metabolites (FU+FUR+FUMP) in plasma or liver after PHY906 co-administration” value is reported as “change”.

Take `COc1cccc2c1C(=O)c1c(O)c3c(c(O)c1C2=O)C[C@@](O)(C(=O)CO)C[C@@H]3O[C@H]1C[C@H](N)[C@H](O)[C@H](C)O1` [doxorubicin, Doxorubicin]: in the series with hepatocellular carcinoma (eight trials, 475 evaluable patients (range 0-35%)), the Response rate is reported as 16%.

For the compound `O=c1ccn(C2OC(CO)C(O)C2(F)F)c(=O)[nH]1` (stereo not shown) [dFdU], in series [2] (Radioactivity detection), the “Cmax, dFdC + PHY906” value stood at 48000 ng/mL; the “Cmax, dFdC alone” value was determined as 31000 ng/mL; the “Tmax, dFdC + PHY906” value was found to be 2 h; the “Tmax, dFdC alone” value amounted to 1 h. Besides, in series [2] (Radioactivity detection), the “T½, dFdC + PHY906” value is 0.82 h; the “T½, dFdC alone” value was 1.55 h; the “AUC, dFdC + PHY906” value worked out at 8.5 mg·min/mL; the “AUC, dFdC alone” value was found to be 5.8 mg·min/mL. Moreover, in series [2] (UV detection), the “Cmax, dFdC + PHY906” value stood at 22000 ng/mL; the “Cmax, dFdC alone” value is 14000 ng/mL; the “Tmax, dFdC + PHY906” value is 2 h; the “Tmax, dFdC alone” value is 1 h. Besides, in series [2] (UV detection), the “T½, dFdC + PHY906” value is 1.16 h; the “T½, dFdC alone” value was determined as 1.64 h; the “AUC, dFdC + PHY906” value came to 4.4 mg·min/mL; the “AUC, dFdC alone” value was 3.1 mg·min/mL. Also, in series [2] (plasma), the “Levels in circulation in the presence or absence of PHY906” value is “not a dramatic difference”.

As for `CCc1c2c(nc3ccc(O)cc13)-c1cc3c(c(=O)n1C2)COC(=O)[C@]3(O)CC` [SN-38], in series [1], the “Level in plasma, liver, or tumor after PHY906 co-administration” value was “remains unchanged”.

As for `CCCCCOC(=O)Nc1nc(=O)n([C@@H]2O[C@H](C)[C@@H](O)[C@H]2O)cc1F` [capecitabine, 5′-deoxy-5-fluoro-N-[(pentyloxy)carbonyl]-cytidine], in series [3], the “Pharmacokinetic profile on co-administration of PHY906” value was “did not alter the pharmacokinetic profile”. Besides, the Median survival time in the series with colorectal cancer (Hoff et al. 2001) is listed as 380 days; with colorectal cancer (Van Cutsem et al. 2001), 404 days. Moreover, the “Median time to disease progression” value is 128 days in the series with colorectal cancer (Hoff et al. 2001) and 137 days in the series on colorectal cancer (Van Cutsem et al. 2001). The Response rate in the series with colorectal cancer (Hoff et al. 2001, P=0.0014) is on record as 21%; in the series with colorectal cancer (Van Cutsem et al. 2001, P=0.027) it was 21%; with hepatocellular carcinoma (55 patients with nonresectable hepatobiliary carcinoma), 13%; in the series with hepatocellular carcinoma (hepatocellular carcinoma / liver cancer, systemic chemotherapy), 13%.

For `CCc1c2c(nc3ccc(OC(=O)N4CCC(N5CCCCC5)CC4)cc13)-c1cc3c(c(=O)n1C2)COC(=O)[C@]3(O)CC` [CPT-11, Irinotecan], the “Response rate, second-line therapy” value in the series on colorectal cancer (advanced colorectal cancer) is given as 10%-15%. Besides, in series [4], the “Dosages with little effect on body weight” value is on record as “lower than 200 mg/kg” and the “Doses resulting in animal death on the second day” value is “greater than or equal to 600 mg/kg”. In series [4] (12 days), the “Doses mice were able to tolerate” value is reported as “up to 400 mg/kg”. In addition, in series [1], the “Level in tumor or liver tissues after PHY906 co-administration” value is “no significant change”. In addition, in series [1] (PHY906-6), the “AUC in plasma after co-administration of PHY906” value is “increases”. In addition, in series [5] (setting [7]), the Survival stood at 82.5% and the “Total No. of Mice Survived N” value came to 33. The “Animal Death (Death/Total)” value in series [5] (CPT-11 treated mice, observed for 14 days) was 7/40. The same compound returned a Maximum tolerable dose in series [6] of 200 mg/kg.
